Laboratory results reported in US5443827A, “Fibrin-targeted inhibitors of thrombin” (President and Fellows of Harvard College, priority 1993, dated 1995).

Columns and labels:
thrombin [1] = biological target: T1, thrombin (Homo sapiens, UniProt P00734); experiment: Fibrin-Sepharose assay (thrombin inhibition as a function of binding to immobilized fibrin); format: biochemical; settings: 800 units applied
Procedure: This assay is as described by Bode et al., J. Biol. Chem. 262:10819-10823, 1987, herein incorporated by reference, with the following modifications. For the purposes of assaying targeted anti-thrombin activity, trace labeling of fibrin-monomer is not necessary. 200 μl fibrin-Sepharose were incubated for 2.5 h at room temperature with defined amounts (by the S-2238 assay) of hirudin or hirudin-59D8-conjugate (hirudin-59D8-IgG or, alternatively, hirudin-59D8-Fab') in 100 μl of buffer. After washing the fibrin-Sepharose three times with 3 ml 0.15M NaCl, 200 μl S-2238 assay buffer and 40 μl (0.05 U) thrombin solution (1.25 U/ml) were added and incubated for 1 h at room temperature. Subsequently 100 μl of chromogenic substrate S-2238 were added, and the reaction was stopped after 25 min by addition of 100 μl 20% acetic acid. After centrifugation (5 min, 1,000×g), absorption of the supernatant was read at 405 nm. Hirudin activity was again detected as inhibition of thrombin activity and was expressed as % of total thrombin activity applied. […]

[2] = tested on: fibrin formation on the surface of a plasma clot; experiment: Inhibition of thrombus growth in a fibrinogen solution; format: biochemical, human; settings: for 3 h; FIG. 4A
Procedure: The method of Runge (Runge et al., Biochemistry 27:1153-1157, 1988, herein incorporated by reference) was followed, with the following modifications. Fresh-frozen plasma obtained from 5 donors was pooled, aliquoted and refrozen. Before each experiment, plasma was ultracentrifuged at 30,000 rpm for 60 min in a Beckmann SW 40 rotor in order to obtain platelet-free plasma (platelet count less than 1,000 platelets/μl). Immediately before each experiment, the anti-thrombin activities of hirudin and hirudin conjugate were calibrated using the S-2238 assay (i.e., the inhibition of thrombin peptidase activity by hirudin and its conjugates was determined, and appropriate dilutions were made so that the inhibition of thrombin peptidase activity was identical for each sample). […] The radioactivity level of each was then determined and only clots within 5% of the mean value were used for experiments.
(§1) After counting, clots were resuspended in 100 μl TBS (0.1M Tris, 0.1M NaCl, pH 7.4). […] At predetermined intervals, clots were removed from the test tube, washed three times with 2 ml 0.15M NaCl and assayed for radioactivity. Clots incubated without thrombin inhibitor (NaCl-controls) often could not be quantitatively removed from the incubation vial because of complete clotting of the assay mixture. […]

[3] = tested on: fibrin deposition on the surface of a clot suspended in human plasma; experiment: Inhibition of thrombus growth in human plasma; format: biochemical
Procedure: The method of Runge (Runge et al., Biochemistry 27:1153-1157, 1988, herein incorporated by reference) was followed, with the following modifications. Fresh-frozen plasma obtained from 5 donors was pooled, aliquoted and refrozen. Before each experiment, plasma was ultracentrifuged at 30,000 rpm for 60 min in a Beckmann SW 40 rotor in order to obtain platelet-free plasma (platelet count less than 1,000 platelets/μl). Immediately before each experiment, the anti-thrombin activities of hirudin and hirudin conjugate were calibrated using the S-2238 assay (i.e., the inhibition of thrombin peptidase activity by hirudin and its conjugates was determined, and appropriate dilutions were made so that the inhibition of thrombin peptidase activity was identical for each sample). Platelet-free plasma clots were made by adding to plasma, in the following sequence: ^125 I-labelled human fibrinogen (20,000 cpm/ml plasma), 0.5M CaCl2 (final concentration 0.05M) and thrombin (0.5 NIH units/ml plasma). Immediately after the addition of thrombin, the solution was drawn into silastic tubing (i.d. 4 mm) and allowed to clot for 2 h at 37 ° C. The tubing was then cut into 1.8 cm sections yielding clots of approximately 0.2 ml. The clots were removed from the tubing, and each was placed in a plastic vial and washed three times with 2 ml 0.15M NaCl. The radioactivity level of each was then determined and only clots within 5% of the mean value were used for experiments.
as §1, with “7.4). Experiments were initiated by the addition of 100 μl hirudin or conjugate solution containing defined amounts of anti-thrombin activity.” for “7.4).”

thrombin [4] = biological target: T1, thrombin; settings: r-Hirudin as obtained from Knoll AG; cited from earlier work
thrombin [5] = biological target: T1, thrombin; experiment: β-Peptide assay (thrombin inhibition as a function of binding to immobilized β-peptide); format: biochemical; settings: fitted parameter ± SD
Procedure: 96-well microtiter plates were coated overnight at 4° C. with β-peptide. 100 μl coating buffer (20 mM Tris, 50 mMNaCl, 1 mM CaCl2, 1 mM MgC2, pH 7.4) containing 0.005 mg β-peptide were applied to each well. After coating, the microtiter plate was first washed 5 times with coating buffer supplemented with 0.05% Tween 20 and then three times with water. Free binding sites were blocked overnight at 4° C. by the addition of 250 μl bovine serum albumin (2% w/v in coating buffer) per well. […]
After washing 7 times with modified coating buffer (20 mM Tris, 0.5 M NaCl2, 1 mM CaCl2, 1 mM MgCl2, 0.2% Tween 20, pH 7.4) and three times with water, 100 μl of assay buffer (20 mMNaHPO4, 0.15M NaCl, 0.1% BSA, pH 7.4) were applied per well and 20 μl (1.25 U/ml) of thrombin solution were allowed to incubate for 1 h at room temperature. Then 50 μl of chromogenic substrate (S-2238 at 0.83 mg/ml) were applied and after 20 minutes, the reaction was stopped by addition of 50 μl of 20% acetic acid, and the resulting absorption read at 405 nm. Hirudin activity was detected as inhibition of thrombin activity and was expressed as % inhibition of total thrombin activity applied. […]

Substance: hirudin
- thrombin inhibition (thrombin [1]): 32.3%
- concentration giving complete inhibition of fibrin formation [2]: 80 ATU/ml
- fibrin deposition lower than NaCl control ([3]; at 10 ATU/ml, FIG. 6A): 17 µg
- fibrin deposition lower than NaCl control ([3]; at 100 ATU/ml, p=0.0001): 112 µg
- fibrin deposition compared with the mixture at 9 ATU/ml ([3]; hirudin at 44 ATU/ml, p=0,003, FIG. 7): lower
- specific activity (thrombin [4]): 17,000 anti-thrombin units (ATU)/mg
- B1, ultimate thrombin inhibition (thrombin [5]; FIG. 2A): 4.3±0.5%
- ultimate inhibition (B1) (thrombin [5]; FIG. 2B): 0%
